Assay results taken from the PolyMetriX glass transition set.
± gives the standard deviation of the reports.

| glass transition temperature | SMILES |
| --- | --- |
| 213.00 °C | *c1ccc(Oc2cccc(Oc3ccc(N4C(=O)c5ccc(Oc6ccc(C(C)(C)c7ccc(Oc8ccc9c(c8)C(=O)N(*)C9=O)cc7)cc6)cc5C4=O)cc3)c2C#N)cc1 (repeat unit) |
| 50.00 °C | *Oc1ccc(-c2ccc(OC(=O)c3ccc(-c4ccc(C(*)=O)cc4C(F)(F)F)c(C(F)(F)F)c3)cc2C(=O)OCCCCCCCCCCCOc2ccc(-c3ccc(C#N)cc3)cc2)c(C(=O)OCCCCCCCCCCCOc2ccc(-c3ccc(C#N)cc3)cc2)c1 (repeat unit) |
| 152.00 °C | *Oc1ccc(C(C)(C)c2ccc(Oc3ccc(C(=O)C(=O)c4ccc(*)cc4)cc3)cc2)cc1 (repeat unit) |
| 172.00 °C | *CC(c1ccccc1)C1C(=O)N(CCN(CC)c2ccc(/N=N/c3ccc([N+](=O)[O-])cc3)cc2)C(=O)C1* (repeat unit) |
| 54.00 °C | *CCCCCCCCCCCCCCNC(=O)NCc1ccc(CNC(=O)N*)cc1 (repeat unit) |
| 311.00 °C | *c1ccc2c(c1)C(=O)N(c1cccc(C(=O)Nc3ccc(NC(=O)c4cccc(N5C(=O)c6ccc(C(*)(C(F)(F)F)C(F)(F)F)cc6C5=O)c4)cc3)c1)C2=O (repeat unit) |
| 224.00 °C | *Oc1cccc2ccc(Oc3ccc(NC(=O)c4ccc(Oc5ccc(Oc6ccc(C(=O)Nc7ccc(*)cc7)cc6)cc5)cc4)cc3)cc12 (repeat unit) |
| 155.00 °C | */C=C/c1ccc(/C=C/c2ccc3c(c2)Sc2cc(*)ccc2N3c2ccc(OCCCCCCCCCCCC)cc2)s1 (repeat unit) |
| 88.00 °C | *CCCCCCNC(=O)CC(C)c1ccc(C(C)CC(=O)N*)cc1 (repeat unit) |
| 241.00 °C | *c1cccc(N2C(=O)c3cccc(Oc4cccc(Oc5cccc6c5C(=O)N(*)C6=O)c4)c3C2=O)c1 (repeat unit) |
| 147.00 °C | *Oc1ccc(C(CC)(c2ccccc2)c2ccc(OC(*)=O)cc2)cc1 (repeat unit) |
| 145.00 °C | *c1ccc(Oc2cccc(Oc3ccc(N4C(=O)CC(=O)N(*)C4=S)cc3)c2)cc1 (repeat unit) |
| 243.00 °C | *Oc1ccc(NC(=O)c2ccc(C(=O)Nc3ccc(Oc4ccc(C(c5ccc(*)cc5)(C(F)(F)F)C(F)(F)F)cc4)cc3)cc2)cc1 (repeat unit) |
| 224.00 °C | *c1cccc(N2C(=O)c3ccc(Oc4cccc(Oc5ccc6c(c5)C(=O)N(*)C6=O)c4)cc3C2=O)c1 (repeat unit) |
| -44.50 °C | *CCOCCOCCOC(=O)CCCCCC(=O)O* (repeat unit) |
| 292.00 °C | *c1ccc2c(c1)C(=O)N(c1ccc(Oc3ccc(N4C(=O)c5ccc(C(*)(C(F)(F)F)C(F)(F)F)cc5C4=O)cc3)c(O)c1)C2=O (repeat unit) |
| 221.00 °C | *CC(OC)C1C(=O)N(c2ccc(N(C)C)cc2)C(=O)C1* (repeat unit) |
| 73.00 °C | *O[Si](C)(C)c1cc(OCCO)c([Si](*)(C)C)cc1OCCO (repeat unit) |
| 325.00 °C | *C(=O)Nc1ccc(Oc2ccc(NC(=O)c3ccc4c(c3)C(=O)N(c3ccc(Oc5ccc(C6(c7ccc(Oc8ccc(N9C(=O)c%10ccc(*)cc%10C9=O)cc8)cc7)NC(=O)c7ccccc76)cc5)cc3)C4=O)cc2)cc1 (repeat unit) |
| 77.00 °C | *Oc1ccc(C(C)(C)c2ccc(OC(=O)c3ccc(OCCCCCCCCCCOc4ccc(C(*)=O)cc4)cc3)cc2)cc1 (repeat unit) |
| 54.53 ± 5.2 °C | *CCCCCCNC(=O)CCCCC(=O)N* (repeat unit) [Poly(hexamethylene adipamide)] |
| 106.00 °C | *C(=O)OCCCCCCCOC(=O)c1ccc(NC(=O)c2ccc(N3C(=O)c4ccc(*)cc4C3=O)cc2)cc1 (repeat unit) |
| 218.00 °C | *c1ccc(Sc2cc3c(cc2Sc2ccc(N4C(=O)c5ccc(Oc6ccc7c(c6)C(=O)N(*)C7=O)cc5C4=O)cc2)C(=O)N(CCc2ccccc2)C3=O)cc1 (repeat unit) |
| 335.00 °C | *C(=O)Oc1ccc(C(c2ccc(OC(=O)c3ccc4c(c3)C(=O)N(c3c(C)cc(-c5cc(C)c(N6C(=O)c7ccc(*)cc7C6=O)c(C)c5)cc3C)C4=O)cc2)(C(F)(F)F)C(F)(F)F)cc1 (repeat unit) |
| 107.00 °C | *Oc1ccc(OC(=O)c2ccc(C(*)=O)cc2Oc2ccc(Cl)cc2)cc1 (repeat unit) |

| glass transition temperature | SMILES |
| --- | --- |
| 45.00 °C | *CC(F)(F)C(F)(F)C(F)(F)COC(=O)c1cccc(-c2cccc(C(=O)O*)c2)c1 (repeat unit) |
| 52.00 °C | *CCOCCOCCOCCOC(=O)/C=C/C(=O)NCCCCCCNC(=O)/C=C/C(=O)O* (repeat unit) |
| 213.00 °C | *Oc1ccc(OC(=O)c2ccc(C(*)=O)cc2)cc1C1CCCCCCC1 (repeat unit) |
| 336.00 °C | *c1ccc2oc(-c3ccc(C(c4ccc(-c5nc6cc(C(*)(C(F)(F)F)C(F)(F)F)ccc6o5)cc4)(C(F)(F)F)C(F)(F)F)cc3)nc2c1 (repeat unit) |
| 310.00 °C | *C(=O)Nc1ccc(Oc2ccc(-c3ccc(Oc4ccc(NC(=O)c5ccc6c(c5)C(=O)N(c5ccc(Oc7cccc8c(Oc9ccc(N%10C(=O)c%11ccc(*)cc%11C%10=O)cc9)cccc78)cc5)C6=O)cc4)cc3)cc2)cc1 (repeat unit) |
| 12.50 °C | *CC(*)(C)C(=O)OCC(F)(F)C(F)(F)C(F)(F)C(F)(F)C(F)(F)C(F)F (repeat unit) |
| 78.00 °C | *c1ccc(/C=C(\C#N)c2cc(OCCCCCCCC)c(/C(C#N)=C/c3ccc(N(*)c4ccccc4)cc3)cc2OCCCCCCCC)cc1 (repeat unit) |
| 220.00 °C | *Oc1ccc(C(C)(C)c2ccc(OC(=O)c3ccc(Oc4ccc(C(*)=O)cc4)cc3)cc2)cc1 (repeat unit) |
| 158.00 °C | *CCN(CCOC(=O)Nc1ccc(C)c(NC(=O)O*)c1)c1ccc(/N=N/c2ccc(-c3nc4ccc([N+](=O)[O-])cc4n3CC)cc2)cc1 (repeat unit) |
| 55.00 °C | *CCCCCCCCNC(=O)CC(=O)N* (repeat unit) |
| 181.00 °C | *Oc1ccc(C2(c3ccc(OC(=O)c4ccc(Oc5ccc(C6(c7ccc(Oc8ccc(C(*)=O)cc8)cc7)CCC(C(C)(C)C)CC6)cc5)cc4)cc3)CC3CC2C2CCCC32)cc1 (repeat unit) |
| 101.00 °C | *CC(O)CN(C)S(=O)(=O)c1ccc(-c2ccc(S(=O)(=O)N(C)CC(O)COc3ccc(C(C)(C)c4ccc(O*)cc4)cc3)cc2)cc1 (repeat unit) |
| 218.00 °C | *c1ccc2c(c1)C(=O)N(c1cccc(NC(=O)C(F)(F)C(F)(F)C(F)(F)C(F)(F)C(F)(F)C(F)(F)C(=O)Nc3cccc(N4C(=O)c5ccc(C(*)(C(F)(F)F)C(F)(F)F)cc5C4=O)c3)c1)C2=O (repeat unit) |
| 64.00 °C | *CCCCCCCCCCOc1ccc(OC(=O)c2ccc(OCCOCCOCCOc3ccc(C(=O)Oc4ccc(O*)cc4)cc3)cc2)cc1 (repeat unit) |
| 90.00 °C | *O[Si](*)(C)C1CC2CC1C1C3CC(CC3C(=O)OC(C)(C)C)C21 (repeat unit) |
| 90.00 °C | *Cc1ccc(CNC(=O)CCCCCCCCCCCCCC(=O)N*)cc1 (repeat unit) |
| 100.00 °C | *CC(COc1c(Cl)cc(C(C)(C)c2cc(Cl)c(O*)c(Cl)c2)cc1Cl)OC(C)=O (repeat unit) |
| 45.00 °C | *CCCCCCOC(=O)NNC(=O)CCCCCCCCC(=O)NNC(=O)O* (repeat unit) |
| 192.00 °C | *C(=O)Nc1ccc(NC(=O)c2ccc3c(c2)C(=O)N(c2ccc(Oc4ccc(N5C(=O)c6ccc(*)cc6C5=O)cc4)cc2)C3=O)c(OCCCCCCS(=O)(=O)c2ccc(/C=C/c3ccc(N(C)C)cc3)cc2)c1 (repeat unit) |
| 80.00 °C | *O[Si](C)(C)COC(=O)CCCCCCCCC(=O)Oc1ccc(S(=O)(=O)c2ccc(Oc3ccc(/C=C4\CCC/C(=C\c5ccc(Oc6ccc(S(=O)(=O)c7ccc(OC(=O)CCCCCCCCC(=O)OC[Si](*)(C)C)cc7)cc6)cc5)C4=O)cc3)cc2)cc1 (repeat unit) |
| 130.00 °C | *Oc1ccc(C(=O)c2ccc(OC(=O)c3ccc(C(C)(C)c4ccc(C(*)=O)cc4)cc3)cc2)cc1 (repeat unit) |
| -37.00 °C | *O[Si](*)(C)CCCOC(=O)c1cc(OC(=O)c2ccc(OCCOCCOCCOCCOC)cc2)ccc1OC(=O)c1ccc(OCCOCCOCCOCCOC)cc1 (repeat unit) |
| 34.5 °C | *CC(*)(C)C(=O)OCc1ccc(Cl)c(Cl)c1 (repeat unit) |
| 155.00 °C | *CCCCCOc1ccc(NC(=O)c2cccc(C(=O)Nc3ccc(O*)cc3)c2)cc1 (repeat unit) |
| 166.00 °C | *O[Si](Oc1ccc(C2(c3ccc(*)cc3)c3ccccc3-c3ccccc32)cc1)(c1ccccc1)c1ccccc1 (repeat unit) |

| SMILES | glass transition temperature |
| --- | --- |
| *CCCCCCCCCNC(=S)N* (repeat unit) | 48.00 °C |
| *CC(*)C(=O)O (repeat unit) [Poly(acrylic acid)] | 105 ± 7.3 °C |
| *CC(*)c1cc(OC)c(O)c(OC)c1 (repeat unit) | 147.00 °C |
| *CCN(*)Cc1ccccc1 (repeat unit) | -16.00 °C |
| *N=P(*)(C)C (repeat unit) | -42.00 °C |
| *CC(*)c1ccc(C#N)cc1 (repeat unit) | 180.00 °C |
| *c1ccc(-c2nc3ccc(Oc4ccc(Oc5ccc(P(=O)(c6ccccc6)c6ccc(Oc7ccc(Oc8ccc9nc(*)c(-c%10ccccc%10)nc9c8)cc7)cc6)cc5)cc4)cc3nc2-c2ccccc2)cc1 (repeat unit) | 248.00 °C |
| *CC(*)(C)C(=O)OCCO (repeat unit) [Poly(2-hydroxyethyl methacrylate)] | 84.03 ± 10 °C |
| *COC1OC(*)C(O)C(O)C1O (repeat unit) | 200.00 °C |
| *CC#CC#CCOc1ccc(C(=O)OCCN(CCOC(=O)c2ccc(O*)cc2)c2ccc(/N=N/c3ccc(C#N)cc3)cc2)cc1 (repeat unit) | 121.00 °C |
| *Oc1ccc(Oc2cccc(*)n2)cc1 (repeat unit) | 100.00 °C |
| *CCN(*)C(=O)C(C)C (repeat unit) | 30.00 °C |
